Measurements reported in ChEMBL document CHEMBL5154776, “Discovery of Potent and Orally Bioavailable Platelet-Derived Growth Factor Receptor (PDGFR) Inhibitors for the Treatment of Osteosarcoma” (J Med Chem, 2022).
Active and inactive are the calls of the source.

What was measured:
HOS-TE85 [1] = experiment: Antitumor activity against human MNNG/HOS cells xenografted in BALB/c nude mouse assessed as reduction in tumor growth at 15 to 30 mg/kg/day, po dosed for 14 days; assay type: functional, organism-based; conditions: dose lower […], dose upper 30.0 mg/kg/day, time 14.0 day
[2] = target: T1, Platelet-derived growth factor receptor beta (Homo sapiens, UniProt P09619); experiment: Inhibition of PDGFRbeta phosphorylation in human MNNG/HOS cells incubated for 48 hrs by Western blot analysis; assay type: cell-based
T1 sequence (P09619 whole entry): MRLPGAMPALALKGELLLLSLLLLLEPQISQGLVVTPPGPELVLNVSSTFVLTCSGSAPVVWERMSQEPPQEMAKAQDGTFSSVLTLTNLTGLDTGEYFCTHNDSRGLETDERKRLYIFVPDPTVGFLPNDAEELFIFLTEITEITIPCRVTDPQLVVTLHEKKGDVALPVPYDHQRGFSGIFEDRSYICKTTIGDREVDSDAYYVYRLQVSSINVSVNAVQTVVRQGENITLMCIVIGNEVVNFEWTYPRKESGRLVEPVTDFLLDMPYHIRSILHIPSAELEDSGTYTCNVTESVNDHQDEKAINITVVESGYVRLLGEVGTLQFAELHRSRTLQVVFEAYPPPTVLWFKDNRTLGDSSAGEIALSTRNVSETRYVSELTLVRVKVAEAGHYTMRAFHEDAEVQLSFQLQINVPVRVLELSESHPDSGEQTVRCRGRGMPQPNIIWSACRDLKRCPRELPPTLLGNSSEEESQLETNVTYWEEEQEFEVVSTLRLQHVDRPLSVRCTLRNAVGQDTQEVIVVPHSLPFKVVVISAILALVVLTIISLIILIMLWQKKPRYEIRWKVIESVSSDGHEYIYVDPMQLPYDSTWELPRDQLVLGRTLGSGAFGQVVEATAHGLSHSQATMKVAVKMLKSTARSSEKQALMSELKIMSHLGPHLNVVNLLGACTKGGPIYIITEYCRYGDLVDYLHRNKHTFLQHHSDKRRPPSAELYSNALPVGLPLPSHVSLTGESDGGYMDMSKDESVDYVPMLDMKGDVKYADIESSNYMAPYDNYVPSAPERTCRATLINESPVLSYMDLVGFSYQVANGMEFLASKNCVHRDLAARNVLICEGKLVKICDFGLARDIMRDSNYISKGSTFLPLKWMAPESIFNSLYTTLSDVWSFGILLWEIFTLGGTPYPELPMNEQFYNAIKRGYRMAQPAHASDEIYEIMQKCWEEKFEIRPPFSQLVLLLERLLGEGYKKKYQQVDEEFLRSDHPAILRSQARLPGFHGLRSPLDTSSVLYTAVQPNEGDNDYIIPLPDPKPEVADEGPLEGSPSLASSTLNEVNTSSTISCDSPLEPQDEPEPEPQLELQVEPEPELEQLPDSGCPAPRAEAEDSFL

HOS-TE85 [3] = experiment: Inhibition of colony formation in human MNNG/HOS cells by crystal violet staining based analysis; assay type: functional, cell-based; conditions: dose 0.1-0.4 µM, DDE = dose-dependent effect
MG-63 [4] = experiment: Induction of cell cycle arrest in human MG-63 cells assessed as accumulation of cells at G0/G1 phase incubated for 48 hrs by propidium iodide staining based flow cytometry analysis; assay type: functional; conditions: dose 0.1-0.4 µM, DDE = dose-dependent effect
HOS-TE85 [5] = experiment: Inhibition of alpha tubulin expression in human MNNG/HOS cells assessed as effect on microtubule network at 0.1 to 0.4 uM by DAPI staining based immunofluorescence microscopic analysis; assay type: functional, cell-based; conditions: dose 0.1-0.4 µM
MG-63 [6] = experiment: Inhibition of alpha tubulin expression in human MG-63 cells assessed as effect on microtubule network at 0.1 to 0.4 uM by DAPI staining based immunofluorescence microscopic analysis; assay type: functional, cell-based; conditions: dose 0.1-0.4 µM
HOS-TE85 [7] = experiment: Induction of apoptosis in human MNNG/HOS cells at 0.4 uM after 48 hrs by Annexin V/PI staining based flow cytometric analysis; assay type: functional, cell-based
MG-63 [8] = experiment: Induction of apoptosis in human MG-63 cells at 0.4 uM after 48 hrs by Annexin V/PI staining based flow cytometric analysis; assay type: functional, cell-based
HOS-TE85 [9] = experiment: Inhibition of PDGF AA/BB-stimulated human MNNG/HOS cell proliferation measured after 48 hrs by MTT assay; assay type: functional, cell-based; conditions: dose 0.1-1.6 µM, DDE = dose-dependent effect
MG-63 [10] = experiment: Inhibition of PDGF AA/BB-stimulated human MG-63 cell proliferation measured after 48 hrs by MTT assay; assay type: functional, cell-based; conditions: dose 0.1-1.6 µM, DDE = dose-dependent effect
HOS-TE85 [11] = experiment: Induction of DNA damage in human MNNG/HOS cells assessed as tail DNA at 0.1 to 0.4 uM measured after 48 hrs by comet assay; assay type: functional, cell-based; conditions: dose 0.1-0.4 µM
[12] = target: T1, Platelet-derived growth factor receptor beta; experiment: Inhibition of PDGFRbeta-mediated downstream signalling in human MG-63 cells assessed as suppression of STAT3 phosphorylation at 0.1 uM measured after 48 hrs by western blot analysis; assay type: cell-based
[13] = target: T1, Platelet-derived growth factor receptor beta; experiment: Inhibition of PDGFRbeta-mediated downstream signalling in human MG-63 cells assessed as suppression of AKT phosphorylation at 0.1 uM measured after 48 hrs by western blot analysis; assay type: cell-based
[14] = target: T1, Platelet-derived growth factor receptor beta; experiment: Inhibition of PDGFRbeta-mediated downstream signalling in human MNNG/HOS cells assessed as suppression of ERK phosphorylation at 0.1 to 0.4 uM measured after 48 hrs by western blot analysis; assay type: cell-based; conditions: dose 0.1-0.4 µM
HOS-TE85 [15] = experiment: Inhibition of cell migration in human MNNG/HOS cells assessed as reduction of cell mobility after 48 hrs by scratch-wound healing assay; assay type: functional, cell-based; conditions: dose 0.1-0.4 µM, DDE = dose-dependent effect
MG-63 [16] = experiment: Inhibition of cell migration in human MG-63 cells assessed as reduction of cell mobility after 48 hrs by scratch-wound healing assay; assay type: functional, cell-based; conditions: dose 0.1-0.4 µM, DDE = dose-dependent effect
HOS-TE85 [17] = experiment: Inhibition of cell adhesion in human MNNG/HOS cells at 0.1 to 0.4 uM measured after 48 hrs by crystal violet staining based analysis; assay type: functional; conditions: dose 0.1-0.4 µM
MG-63 [18] = experiment: Inhibition of cell adhesion in human MG-63 cells at 0.1 to 0.4 uM measured after 48 hrs by crystal violet staining based analysis; assay type: functional; conditions: dose 0.1-0.4 µM
HOS-TE85 [19] = experiment: Inhibition of cell invasion in human MNNG/HOS cells at 0.1 to 0.4 uM measured after 48 hrs by crystal violet staining based transwell assay; assay type: functional; conditions: dose 0.1-0.4 µM
MG-63 [20] = experiment: Inhibition of cell invasion in human MG-63 cells at 0.1 to 0.4 uM measured after 48 hrs by crystal violet staining based transwell assay; assay type: functional; conditions: dose 0.1-0.4 µM
HOS-TE85 [21] = experiment: Inhibition of cell migration in human MNNG/HOS cells at 0.1 to 0.4 uM measured for 48 hrs scratch wound healing migration assay; assay type: functional, cell-based; conditions: dose 0.1-0.4 µM
MG-63 [22] = experiment: Inhibition of cell migration in human MG-63 cells at 0.1 to 0.4 uM measured for 48 hrs scratch wound healing migration assay; assay type: functional, cell-based; conditions: dose 0.1-0.4 µM
HOS-TE85 [23] = experiment: Antiinvasive activity against human MNNG/HOS cells assessed as expression of FAK by measuring fluorescence at 0.1 to 0.4 uM upto 48 hrs by DAPI staining based immunofluorescence microscopic analysis; assay type: functional, cell-based; conditions: dose 0.1-0.4 µM
MG-63 [24] = experiment: Antiinvasive activity against human MG-63 cells assessed as expression of FAK by measuring fluorescence at 0.1 to 0.4 uM upto 48 hrs by DAPI staining based immunofluorescence microscopic analysis; assay type: functional, cell-based; conditions: dose 0.1-0.4 µM
HOS-TE85 [25] = experiment: Antiinvasive activity against human MNNG/HOS cells assessed as reduction in cell spreading area upto 48 hrs by DAPI staining based immunofluorescence microscopic analysis; assay type: functional; conditions: dose 0.1-0.4 µM, DDE = dose-dependent effect
MG-63 [26] = experiment: Antimigratory activity against human MG-63 cells assessed as reduction in cell spreading area upto 48 hrs by DAPI staining based immunofluorescence microscopic analysis; assay type: functional; conditions: dose 0.1-0.4 µM, DDE = dose-dependent effect
MG-63 [27] = experiment: Antiinvasive activity against human MG-63 cells assessed as reduction in cell spreading area upto 48 hrs by DAPI staining based immunofluorescence microscopic analysis; assay type: functional; conditions: dose 0.1-0.4 µM, DDE = dose-dependent effect
HOS-TE85 [28] = experiment: Inhibition of FAK expression in human MNNG/HOS cells incubated for 48 hrs by Western blot analysis; assay type: functional, cell-based; conditions: dose 0.1-0.4 µM, DDE = dose-dependent effect
[29] = target: Focal adhesion kinase 1 (Homo sapiens) (UniProt Q05397); experiment: Inhibition of FAK phosphorylation in human MNNG/HOS cells incubated for 48 hrs by Western blot analysis; assay type: cell-based; conditions: dose 0.1-0.4 µM, DDE = dose-dependent effect
Sequence of Focal adhesion kinase 1 (Homo sapiens) (Q05397 2-1052 limits assumed): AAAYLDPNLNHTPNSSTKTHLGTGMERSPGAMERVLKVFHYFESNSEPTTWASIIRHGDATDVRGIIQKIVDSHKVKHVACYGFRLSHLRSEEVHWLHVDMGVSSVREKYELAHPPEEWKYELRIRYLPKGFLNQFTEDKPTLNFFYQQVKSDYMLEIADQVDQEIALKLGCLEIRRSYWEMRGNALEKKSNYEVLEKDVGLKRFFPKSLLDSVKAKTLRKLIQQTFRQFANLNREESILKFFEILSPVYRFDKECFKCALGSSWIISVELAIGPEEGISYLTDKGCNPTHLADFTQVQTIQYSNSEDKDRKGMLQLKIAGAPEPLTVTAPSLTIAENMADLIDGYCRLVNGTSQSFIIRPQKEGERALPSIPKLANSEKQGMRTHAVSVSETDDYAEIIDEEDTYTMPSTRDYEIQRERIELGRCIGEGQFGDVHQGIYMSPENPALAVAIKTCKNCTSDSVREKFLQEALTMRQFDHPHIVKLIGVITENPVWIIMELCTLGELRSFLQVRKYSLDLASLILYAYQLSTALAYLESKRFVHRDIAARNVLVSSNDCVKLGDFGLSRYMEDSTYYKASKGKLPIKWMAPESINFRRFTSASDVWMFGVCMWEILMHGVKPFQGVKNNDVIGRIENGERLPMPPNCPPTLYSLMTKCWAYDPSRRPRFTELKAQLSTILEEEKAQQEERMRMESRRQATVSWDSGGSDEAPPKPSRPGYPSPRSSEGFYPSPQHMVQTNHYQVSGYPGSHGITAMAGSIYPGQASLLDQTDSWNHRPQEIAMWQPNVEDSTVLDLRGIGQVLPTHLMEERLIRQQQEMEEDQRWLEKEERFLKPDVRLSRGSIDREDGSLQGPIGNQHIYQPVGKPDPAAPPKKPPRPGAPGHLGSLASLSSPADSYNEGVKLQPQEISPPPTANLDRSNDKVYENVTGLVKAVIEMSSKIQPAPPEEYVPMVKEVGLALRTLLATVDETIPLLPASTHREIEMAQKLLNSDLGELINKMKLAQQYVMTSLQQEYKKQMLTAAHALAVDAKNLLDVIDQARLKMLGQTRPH

[30] = target: Focal adhesion kinase 1 (Homo sapiens) (UniProt Q05397); experiment: Inhibition of FAK phosphorylation in human MG-63 cells incubated for 48 hrs by Western blot analysis; assay type: cell-based; conditions: dose 0.1-0.4 µM, DDE = dose-dependent effect
[31] = target: Platelet-derived growth factor receptor alpha (Homo sapiens, UniProt P16234); experiment: Binding affinity to PDGFRalpha (unknown origin)
Sequence of Platelet-derived growth factor receptor alpha (P16234 whole entry): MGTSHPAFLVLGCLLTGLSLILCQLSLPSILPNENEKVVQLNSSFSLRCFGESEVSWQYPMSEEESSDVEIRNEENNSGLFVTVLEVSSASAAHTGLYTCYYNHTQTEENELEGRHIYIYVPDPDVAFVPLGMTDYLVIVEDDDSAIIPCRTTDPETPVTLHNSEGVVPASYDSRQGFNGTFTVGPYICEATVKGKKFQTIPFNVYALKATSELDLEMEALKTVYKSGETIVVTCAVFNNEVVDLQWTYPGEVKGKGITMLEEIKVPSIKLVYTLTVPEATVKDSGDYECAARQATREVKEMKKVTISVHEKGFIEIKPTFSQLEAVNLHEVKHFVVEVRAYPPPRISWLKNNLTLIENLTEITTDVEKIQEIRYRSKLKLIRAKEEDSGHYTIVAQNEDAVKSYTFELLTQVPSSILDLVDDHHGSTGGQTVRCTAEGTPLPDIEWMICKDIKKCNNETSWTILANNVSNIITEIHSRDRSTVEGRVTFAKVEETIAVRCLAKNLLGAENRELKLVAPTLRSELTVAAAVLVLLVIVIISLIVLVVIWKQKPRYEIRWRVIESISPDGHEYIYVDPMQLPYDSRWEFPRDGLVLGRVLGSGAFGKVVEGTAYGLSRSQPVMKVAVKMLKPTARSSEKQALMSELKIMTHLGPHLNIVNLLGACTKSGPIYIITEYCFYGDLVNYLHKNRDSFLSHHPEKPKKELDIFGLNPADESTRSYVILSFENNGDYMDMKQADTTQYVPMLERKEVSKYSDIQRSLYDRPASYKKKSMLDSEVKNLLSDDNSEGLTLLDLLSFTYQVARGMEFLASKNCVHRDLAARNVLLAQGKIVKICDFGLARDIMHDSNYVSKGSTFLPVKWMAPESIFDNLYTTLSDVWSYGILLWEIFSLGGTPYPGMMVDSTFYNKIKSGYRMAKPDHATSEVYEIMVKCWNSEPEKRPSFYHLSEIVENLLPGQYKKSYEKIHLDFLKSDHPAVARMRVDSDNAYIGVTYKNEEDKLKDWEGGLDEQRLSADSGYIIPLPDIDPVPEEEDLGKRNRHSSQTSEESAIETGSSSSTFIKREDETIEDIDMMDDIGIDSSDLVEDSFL

HOS-TE85 [32] = experiment: Inhibition of PDGFRbeta expression in human MNNG/HOS cells incubated for 48 hrs by Western blot analysis; assay type: functional, cell-based
MG-63 [33] = experiment: Inhibition of PDGFRbeta expression in human MG-63 cells incubated for 48 hrs by Western blot analysis; assay type: functional, cell-based
HOS-TE85 [34] = experiment: Antiproliferative activity against human MNNG/HOS cells xenografted in BALB/c nude mouse assessed as suppression of tumor growth at 15 to 30 mg/kg/day, po dosed for 14 days by immunohistochemistry analysis; assay type: functional, organism-based; conditions: dose lower […], dose upper 30.0 mg/kg/day, time 14.0 day
HOS-TE85 [35] = experiment: In vivo inhibition of PDGFRbeta-mediated downstream signalling in human MNNG/HOS cells xenografted in BALB/c nude mouse assessed as phosphorylation of STAT3 in tumor tissue at 15 to 30 mg/kg/day, po for 14 days; assay type: functional, organism-based; conditions: dose lower […], dose upper 30.0 mg/kg/day, time 14.0 day
HOS-TE85 [36] = experiment: In vivo inhibition of PDGFRbeta-mediated downstream signalling in human MNNG/HOS cells xenografted in BALB/c nude mouse assessed as phosphorylation of ERK in tumor tissue at 15 to 30 mg/kg/day, po for 14 days; assay type: functional, organism-based; conditions: dose lower […], dose upper 30.0 mg/kg/day, time 14.0 day
HOS-TE85 [37] = experiment: In vivo inhibition of PDGFRbeta-mediated downstream signalling in human MNNG/HOS cells xenografted in BALB/c nude mouse assessed as phosphorylation of AKT in tumor tissue at 15 to 30 mg/kg/day, po for 14 days; assay type: functional, organism-based; conditions: dose lower […], dose upper 30.0 mg/kg/day, time 14.0 day
HOS-TE85 [38] = experiment: Inhibition of colony formation in human MNNG/HOS cells at 0.2 uM by crystal violet staining based analysis; assay type: functional, cell-based
[39] = target: T1, Platelet-derived growth factor receptor beta; experiment: Inhibition of PDGFRbeta in PDGF AA/BB stimulated human MG-63 cells assessed as reduction in fluorescence intensity measured after 48 hrs by DAPI staining based immunofluorescence analysis; assay type: cell-based; conditions: dose 0.1-0.4 µM, DDE = dose-dependent effect

CCN1CCN(c2ccc(Nc3ncc(C)c(Nc4ccc5cn[nH]c5c4)n3)cc2OC)CC1
active: Activity (HOS-TE85 [1]) | inhibition [2] | inhibition (HOS-TE85 [3]) Dde | Activity (MG-63 [4]) Dde | inhibition (HOS-TE85 [5]) | inhibition (MG-63 [6]) | Activity (HOS-TE85 [7]) | Activity (MG-63 [8]) | inhibition (HOS-TE85 [9]) Dde | inhibition (MG-63 [10]) Dde | Activity (HOS-TE85 [11]) | inhibition [12] | inhibition [13] | inhibition [14] | inhibition (HOS-TE85 [15]) Dde | inhibition (MG-63 [16]) Dde | inhibition (HOS-TE85 [17]) | inhibition (MG-63 [18]) | inhibition (HOS-TE85 [19]) | inhibition (MG-63 [20]) | inhibition (HOS-TE85 [21]) | inhibition (MG-63 [22]) | Activity (HOS-TE85 [23]) | Activity (MG-63 [24]) | Activity (HOS-TE85 [25]) Dde | Activity (MG-63 [26]) Dde | Activity (MG-63 [27]) Dde | inhibition (HOS-TE85 [28]) Dde | inhibition [29] Dde | inhibition [30] Dde | Activity [31] | inhibition (HOS-TE85 [32]) | inhibition (MG-63 [33]) | Activity (HOS-TE85 [34]) | inhibition (HOS-TE85 [35]) | inhibition (HOS-TE85 [36]) | inhibition (HOS-TE85 [37]) | inhibition (HOS-TE85 [38]) | inhibition [39] Dde
